{
  "source": "PubChem BioAssay (NCI)",
  "experiment_in_all_cases": "NCI-60 cell line screen, 48 h",
  "key": {"U251 CNS": {"test_system": "U251 CNS"}, "SNB-75 CNS": {"test_system": "SNB-75 CNS"}, "UO-31 renal": {"test_system": "UO-31 renal"}, "HOP-62 NSCLC": {"test_system": "HOP-62 NSCLC"}, "COLO 205 colon": {"test_system": "COLO 205 colon"}, "HOP-92 NSCLC": {"test_system": "HOP-92 NSCLC"}, "BT-549 breast": {"test_system": "BT-549 breast"}, "MCF7 breast": {"test_system": "MCF7 breast"}, "OVCAR-4 ovarian": {"test_system": "OVCAR-4 ovarian"}, "MALME-3M melanoma": {"test_system": "MALME-3M melanoma"}, "SK-MEL-28 melanoma": {"test_system": "SK-MEL-28 melanoma"}, "OVCAR-5 ovarian": {"test_system": "OVCAR-5 ovarian"}, "M14 melanoma": {"test_system": "M14 melanoma"}, "HS 578T breast": {"test_system": "HS 578T breast"}, "SN12C renal": {"test_system": "SN12C renal"}, "NCI-H23 lung": {"test_system": "NCI-H23 lung"}, "CCRF-CEM leukemia": {"test_system": "CCRF-CEM leukemia"}, "OVCAR-8 ovarian": {"test_system": "OVCAR-8 ovarian"}, "A498 renal": {"test_system": "A498 renal"}, "MOLT-4 leukemia": {"test_system": "MOLT-4 leukemia"}, "NCI/ADR-RES ovarian": {"test_system": "NCI/ADR-RES ovarian"}, "SF-268 CNS": {"test_system": "SF-268 CNS"}, "A549 NSCLC": {"test_system": "A549 NSCLC"}, "SW-620 colon": {"test_system": "SW-620 colon"}, "CAKI-1 renal": {"test_system": "CAKI-1 renal"}, "T-47D breast": {"test_system": "T-47D breast"}, "SF-295 CNS": {"test_system": "SF-295 CNS"}, "TK-10 renal": {"test_system": "TK-10 renal"}, "UACC-62 melanoma": {"test_system": "UACC-62 melanoma"}},
  "note": "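Results reflect a 48-hour exposure of cells in 96-well plates to compound at five concentrations. At the GI50, growth is halved. TGI: total growth inhibition.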",
  "data": [
    {"smiles": "CCCCCC(=O)OCC(=O)O[C@@H]1C[C@]2(C(C)C)O[C@@]1(C)[C@@H]1CC[C@@H](C)[C@H]1[C@@H]2OC(=O)/C=C/c1ccccc1", "values": [
      {"measurement": "GI50", "setting": "U251 CNS", "value": "> 53.1", "unit": "µM"},
      {"measurement": "TGI", "setting": "U251 CNS", "value": "> 100", "unit": "µM"},
      {"measurement": "GI50", "setting": "SNB-75 CNS", "value": 42.4, "unit": "µM"},
      {"measurement": "TGI", "setting": "SNB-75 CNS", "value": "> 87.6", "unit": "µM"},
      {"measurement": "GI50", "setting": "UO-31 renal", "value": 0.0408, "unit": "µM"},
      {"measurement": "TGI", "setting": "UO-31 renal", "value": 0.254, "unit": "µM"},
      {"measurement": "GI50", "setting": "HOP-62 NSCLC", "value": "> 74.6", "unit": "µM"},
      {"measurement": "TGI", "setting": "HOP-62 NSCLC", "value": "> 100", "unit": "µM"},
      {"measurement": "GI50", "setting": "COLO 205 colon", "value": "> 61.3", "unit": "µM"},
      {"measurement": "TGI", "setting": "COLO 205 colon", "value": "> 95.9", "unit": "µM"},
      {"measurement": "GI50", "setting": "HOP-92 NSCLC", "value": 12.8, "unit": "µM"},
      {"measurement": "TGI", "setting": "HOP-92 NSCLC", "value": "> 74.5", "unit": "µM"},
      {"measurement": "GI50", "setting": "BT-549 breast", "value": 0.0923, "unit": "µM"},
      {"measurement": "TGI", "setting": "BT-549 breast", "value": 14.4, "unit": "µM"},
      {"measurement": "GI50", "setting": "MCF7 breast", "value": "> 32.9", "unit": "µM"},
      {"measurement": "TGI", "setting": "MCF7 breast", "value": "> 100", "unit": "µM"},
      {"measurement": "GI50", "setting": "OVCAR-4 ovarian", "value": 26.5, "unit": "µM"},
      {"measurement": "TGI", "setting": "OVCAR-4 ovarian", "value": "> 71.5", "unit": "µM"},
      {"measurement": "GI50", "setting": "MALME-3M melanoma", "value": "> 35.4", "unit": "µM"},
      {"measurement": "TGI", "setting": "MALME-3M melanoma", "value": "> 57", "unit": "µM"},
      {"measurement": "GI50", "setting": "SK-MEL-28 melanoma", "value": "> 56.6", "unit": "µM"},
      {"measurement": "TGI", "setting": "SK-MEL-28 melanoma", "value": "> 83", "unit": "µM"},
      {"measurement": "GI50", "setting": "OVCAR-5 ovarian", "value": "> 81.7", "unit": "µM"},
      {"measurement": "TGI", "setting": "OVCAR-5 ovarian", "value": "> 100", "unit": "µM"},
      {"measurement": "GI50", "setting": "M14 melanoma", "value": "> 53.4", "unit": "µM"},
      {"measurement": "TGI", "setting": "M14 melanoma", "value": "> 100", "unit": "µM"},
      {"measurement": "TGI", "setting": "HS 578T breast", "value": 0.0315, "unit": "µM"},
      {"measurement": "GI50", "setting": "SN12C renal", "value": 2.9, "unit": "µM"},
      {"measurement": "TGI", "setting": "SN12C renal", "value": "> 78.7", "unit": "µM"},
      {"measurement": "GI50", "setting": "NCI-H23 lung", "value": "> 52.8", "unit": "µM"},
      {"measurement": "TGI", "setting": "NCI-H23 lung", "value": "> 75.7", "unit": "µM"},
      {"measurement": "GI50", "setting": "CCRF-CEM leukemia", "value": "> 37.6", "unit": "µM"},
      {"measurement": "TGI", "setting": "CCRF-CEM leukemia", "value": "> 100", "unit": "µM"},
      {"measurement": "GI50", "setting": "OVCAR-8 ovarian", "value": 0.0907, "unit": "µM"},
      {"measurement": "TGI", "setting": "OVCAR-8 ovarian", "value": "> 79.2", "unit": "µM"},
      {"measurement": "GI50", "setting": "A498 renal", "value": 0.0525, "unit": "µM"},
      {"measurement": "TGI", "setting": "A498 renal", "value": 0.306, "unit": "µM"},
      {"measurement": "GI50", "setting": "MOLT-4 leukemia", "value": "> 45.5", "unit": "µM"},
      {"measurement": "TGI", "setting": "MOLT-4 leukemia", "value": "> 100", "unit": "µM"},
      {"measurement": "GI50", "setting": "NCI/ADR-RES ovarian", "value": 0.291, "unit": "µM"},
      {"measurement": "TGI", "setting": "NCI/ADR-RES ovarian", "value": "> 70.6", "unit": "µM"},
      {"measurement": "GI50", "setting": "SF-268 CNS", "value": 4.08, "unit": "µM"},
      {"measurement": "TGI", "setting": "SF-268 CNS", "value": "> 84.7", "unit": "µM"},
      {"measurement": "GI50", "setting": "A549 NSCLC", "value": "> 60.3", "unit": "µM"},
      {"measurement": "TGI", "setting": "A549 NSCLC", "value": "> 100", "unit": "µM"},
      {"measurement": "GI50", "setting": "SW-620 colon", "value": "> 40.7", "unit": "µM"},
      {"measurement": "TGI", "setting": "SW-620 colon", "value": "> 67.6", "unit": "µM"},
      {"measurement": "GI50", "setting": "CAKI-1 renal", "value": 0.0329, "unit": "µM"},
      {"measurement": "TGI", "setting": "CAKI-1 renal", "value": 0.221, "unit": "µM"},
      {"measurement": "GI50", "setting": "T-47D breast", "value": 10, "unit": "µM"},
      {"measurement": "TGI", "setting": "T-47D breast", "value": "> 92.7", "unit": "µM"},
      {"measurement": "GI50", "setting": "SF-295 CNS", "value": "> 68.2", "unit": "µM"},
      {"measurement": "TGI", "setting": "SF-295 CNS", "value": "> 100", "unit": "µM"},
      {"measurement": "GI50", "setting": "TK-10 renal", "value": "> 51.1", "unit": "µM"},
      {"measurement": "TGI", "setting": "TK-10 renal", "value": "> 93.5", "unit": "µM"},
      {"measurement": "GI50", "setting": "UACC-62 melanoma", "value": "> 53.8", "unit": "µM"},
      {"measurement": "TGI", "setting": "UACC-62 melanoma", "value": "> 100", "unit": "µM"}
    ]}
  ]
}
